In patent publication US9999614B2, “Combination for the prophylaxis and treatment of behavioural, mental, and cognitive disorders” (LTD “VALENTA-INTELLEKT”, priority 2012, dated 2018):

Tests used:
[1] = tested on: amnesia caused by acute normobaric hypoxic hypoxia with hypercapnia; assay: Open-field method after acute normobaric hypoxic hypoxia with hypercapnia; format: in vivo, mice; settings: i.p. once a day for 5 days, Melatonin 5 mg, Memantin 10 mg mono-use
Description: (§1) For this, the active substances Melatonin 3 mg/Memantin 10 mg, Melatonin 5 mg/Memantin 20 mg, Melatonin 10 mg/Memantin 20 mg were taken, and doses recommended for human beings were converted into doses adapted for mice according to the formula “(active substance/70(average weight of a human being))×7”. Then the compositions were dissolved in 5 mL of the solution and, according to the given formula, introduced to animals intraperitoneally once a day for 5 days.
The antiamnestic action of the compositions was also carried out on an model of amnesia caused by acute normobaric hypoxic hypoxia with hypercapnia in a so-called hermetic chamber on white non-linear male mice having a weight of 20-24 Γ with the CPAR development in the animals according to the open-field method. After CPAR teaching the animals were put in the hermetic chamber for 16-18 minutes, depending on manifestation of hypoxia symptoms and weight. This model was reproduced by placing mice, one by one, in glass jars of equal volume that were hermetically sealed. With consumption of oxygen its concentration in the jar air and in the organism lowered and the quantity of carbon dioxide, on the contrary, raised. As the result, acute hypoxic hypoxia with hypercapnia developed in the animals. The animals of the control group were subjected to false hypoxia, that is, the mice were put in glass jars of equal volume that were not closed. The substances under study and the sodium chloride isotonic solution (control) were used in comparison with Melatonin 5 mg (mono-use) and Memantin 10 mg (mono-use) in accordance with the above formula for adapting to animal models by intraperitoneal introduction, before teaching the mice, once a day for 5 days.

[2] = tested on: amnestic effect caused by mice swimming in cold water, simultaneously rotating wheel to the point of exhaustion; assay: CPAR, amnesia induced by swimming in cold water with wheel rotation to the point of exhaustion; format: in vivo; settings: Melatonin 5 mg, Memantin 10 mg mono-use
Description: as §1
The CPAR test is the main model for evaluating substance influences on formation and replication of short-time memory in a normal condition and in an abnormal condition, i.e., induced amnesia. The CPAR is the most informative method among the methods that are used today for evaluating efficiency of substances with influence on the CNS of mammals (see, “Manual for Experimental (Pre-Clinical) Studies of New Pharmacological Substances”, 2000). The CPAR (conditioned passive avoidance reflex in a dark, light chamber) was taught to the mice on the basis of electrodermal response according to the method proposed by Cumin et al. (1982) with due regard to the recommendations given by Mondadori et al. (1990). The installation for mice, as produced by Lafayette Instrument Co., USA, was a black chamber with the electrode floor and a white plastic platform that was arranged on the floor in the center of the chamber. The mice, one by one, were put onto the plastic platform. The animals went/jumped down onto the electrode floor where they received an electric current shock, i.e., punishment. Electric current was supplied after the time when an animal stood on the floor with all its four legs. The natural response of the animals is to go back to the current-free or safe platform. After several minutes of teaching, 5 minutes on the average, mice developed CPAR and remained on the safe platform. Tests for memorizing CPAR were conducted in successive time intervals after amnesic action. In a case where an animal went/jumped down onto the platform within 1 minute, it was recorded as having retrograde amnesia of the passive avoidance skill. The compositions were studied in comparison with Melatonin 5 mg (mono-use) and Memantin 10 mg (mono-use), according to the above formula for adapting to animal models.
The antiamnestic action of the compositions on the amnesia model induced by swimming of mice in cold water with wheel rotation to the point of exhaustion. Studies were conducted on white non-linear male mice having a weight of 20-24 g with developing CPAR in the animals as in the previous studies. The animals were put, one by one, into a container filled with water and equipped with a rotating wheel. After teaching CPAR, the mice swam in cold water, simultaneously rotating the wheel to the point of exhaustion. The CPAR maintenance was checked in successive time intervals. As false imitation of swimming in cold water, mice were put onto a pad consisting of wet cold wadding. The substances and an isotonic solution of sodium chloride (control) were studied in comparison with Melatonin 5 mg (mono-use) and Memantin 10 mg (mono-use), in accordance with the above formula for adapting to animal models, by intraperitoneal introduction before teaching mice, once a day for 5 days.

[3] = tested on: amnesia in mice, as caused by scopolamine; assay: CPAR, model of amnesia caused by scopolamine; format: in vivo; settings: for Latent time of entering into the dark chamber / Number of mice not entered into the dark chamber, % / Number of mice taught to CPAR (%): scopolamine 1 mg/kg i.p., Melatonin 5 mg, Memantin 10 mg mono-use; for Number of mice taught to CPAR (%): agents i.p. once a day for 5 days; for Effect on scopolamine amnesia of the skill (in words): summary of Tables 3-4
Description: as §1
The CPAR test is the main model for evaluating substance influences on formation and replication of short-time memory in a normal condition and in an abnormal condition, i.e., induced amnesia. The CPAR is the most informative method among the methods that are used today for evaluating efficiency of substances with influence on the CNS of mammals (see, “Manual for Experimental (Pre-Clinical) Studies of New Pharmacological Substances”, 2000). The CPAR (conditioned passive avoidance reflex in a dark, light chamber) was taught to the mice on the basis of electrodermal response according to the method proposed by Cumin et al. (1982) with due regard to the recommendations given by Mondadori et al. (1990). The installation for mice, as produced by Lafayette Instrument Co., USA, was a black chamber with the electrode floor and a white plastic platform that was arranged on the floor in the center of the chamber. The mice, one by one, were put onto the plastic platform. The animals went/jumped down onto the electrode floor where they received an electric current shock, i.e., punishment. Electric current was supplied after the time when an animal stood on the floor with all its four legs. The natural response of the animals is to go back to the current-free or safe platform. […] Tests for memorizing CPAR were conducted in successive time intervals after amnesic action. In a case where an animal went/jumped down onto the platform within 1 minute, it was recorded as having retrograde amnesia of the passive avoidance skill. The compositions were studied in comparison with Melatonin 5 mg (mono-use) and Memantin 10 mg (mono-use), according to the above formula for adapting to animal models.
The compositions under study were dissolved in 5 mL of the solution and, according to the above formula, introduced to the animals intraperitoneally, once a day for 5 days.

Compound | Horizontal motion activity ([1]; 1st day after operation) | Inspection of holes ([1]; 1st day after operation) | Vertical motion activity ([1]; 1st day after operation) | Horizontal motion activity ([1]; 3rd day after operation) | Inspection of holes ([1]; 3rd day after operation) | Vertical motion activity ([1]; 3rd day after operation) | Horizontal motion activity ([1]; 7th day after operation) | Inspection of holes ([1]; 7th day after operation) | Vertical motion activity ([1]; 7th day after operation) | Horizontal motion activity ([1]; 10th day after operation) | Inspection of holes ([1]; 10th day after operation) | Vertical motion activity ([1]; 10th day after operation) | Latent time of entering into the dark chamber ([2]; 1 day after teaching) [s] | Number of mice not entered into the dark chamber, % ([2]; 1 day after teaching) [%] | Latent time of entering into the dark chamber ([2]; 3 days after teaching) [s] | Number of mice not entered into the dark chamber, % ([2]; 3 days after teaching) [%] | Latent time of entering into the dark chamber ([2]; 7 days after teaching) [s] | Number of mice not entered into the dark chamber, % ([2]; 7 days after teaching) [%] | Latent time of entering into the dark chamber ([2]; 10 days after teaching) [s] | Number of mice not entered into the dark chamber, % ([2]; 10 days after teaching) [%] | further results
COc1ccc2[nH]cc(CCNC(C)=O)c2c1 [Melatonin, N-acetyl-5-methoxytriptamine] | 6.9 ± 2.3 | 1.7 ± 0.6 | 3.2 ± 1.2 | 8.2 ± 1.4 | 1.9 ± 0.8 | 3.5 ± 0.9 | 8.3 ± 2.8 | 2.4 ± 0.5 | 3.2 ± 1.3 | 8.1 ± 1.7 | 2.6 ± 2.9 | 3.6 ± 2.3 | 109.3 ± 9.8 | 61.5 | 105.4 ± 13.5 | 46.1 | 104.6 ± 15.1 | 38.5 | 100.9 ± 17.4 | 30.7 | Latent time of entering into the dark chamber ([3]; 1 day after teaching): 111.3 ± 15.7 s; Number of mice not entered into the dark chamber, % ([3]; 1 day after teaching): 58.3%; Latent time of entering into the dark chamber ([3]; 3 days after teaching): 107.4 ± 21.2 s; Number of mice not entered into the dark chamber, % ([3]; 3 days after teaching): 54.5%; Latent time of entering into the dark chamber ([3]; 7 days after teaching): 105.8 ± 17.4 s; Number of mice not entered into the dark chamber, % ([3]; 7 days after teaching): 45.4%; Latent time of entering into the dark chamber ([3]; 10 days after teaching): 101.2 ± 20.6 s; Number of mice not entered into the dark chamber, % ([3]; 10 days after teaching): 36.3%; Number of mice taught to CPAR (%) [3]: 66.7%; Effect on scopolamine amnesia of the skill (in words) [3]: influenced on amnesia of the skill obtained, but insignificantly
CC12CC3CC(C)(C1)CC(N)(C3)C2 [Memantin] | 7.1 ± 2.7 | 2.1 ± 1.1 | 3.7 ± 1.9 | 8.9 ± 4.9 | 2.5 ± 1.1 | 3.3 ± 1.2 | 9.6 ± 3.4 | 3.0 ± 2.7 | 3.7 ± 1.8 | 11.3 ± 1.7 | 3.2 ± 1.3 | 4.1 ± 2.5 | 111.3 ± 22.3 | 41.6 | 115.9 ± 16.5 | 50 | 117.4 ± 28.1 | 66.6 | 118.0 ± 23.3 | 66.6 | Latent time of entering into the dark chamber ([3]; 1 day after teaching): 110.8 ± 25.8 s; Number of mice not entered into the dark chamber, % ([3]; 1 day after teaching): 50%; Latent time of entering into the dark chamber ([3]; 3 days after teaching): 114.4 ± 18.2 s; Number of mice not entered into the dark chamber, % ([3]; 3 days after teaching): 60%; Latent time of entering into the dark chamber ([3]; 7 days after teaching): 111.1 ± 21.2 s; Number of mice not entered into the dark chamber, % ([3]; 7 days after teaching): 40%; Latent time of entering into the dark chamber ([3]; 10 days after teaching): 108.6 ± 18.7 s; Number of mice not entered into the dark chamber, % ([3]; 10 days after teaching): 40%; Number of mice taught to CPAR (%) [3]: 70%; Effect on scopolamine amnesia of the skill (in words) [3]: influenced on amnesia of the skill obtained, but insignificantly
